Structures can show the parent of a compound that is named as a salt.
Tests used:
[1] = test system: locomotor activity of mice; experiment: Effects on locomotor activity, wheel cage method; assay type: in vivo, ddY-strain male mice
Method: (§1) In Tests 1 to 4 given below, ddY-strain male mice (body weight 20-25 g) were used, and the experiments were carried out in a semi-soundproof, constant-temperature room kept at a temperature of 23±1° C. and a humidity of 55±2%. The mice were allowed to take feed and water freely.
Test 1: Effects on locomotor activity
The effects of the test compound on the locomotor activities of the mice were examined by using wheel cages (made by Kishimoto Ika). […] The mice were used in groups each consisting of 8 mice. The test compound was intraperitoneally administered to the mice in the doses indicated, and immediately then, the mice were put into the cages. The locomotor activities (the number of revolutions) were measured for 90 minutes at 15 minute intervals, and compared with that of the control group.

[2] = test system: planar locomotor activity of mice; experiment: Effects on planar locomotor activity, automex method; assay type: in vivo, ddY-strain male mice
Method: as §1
The effects of the test compound on planar locomotor activity of the mice were examined by using an automex activity meter (made by Columbus Company). […] The test compound was intraperitoneally administered to the mice in doses indicated. Immediately then, five mice were put into each of transparent plastic cages (27×17×17 cm), and placed on the automex activity meter. The motor activity for 30 minutes was measured at 5 minutes intervals, and compared with that of the control group.

[3] = test system: motor activity enhanced by methamphetamine; experiment: Antagonistic effect against methamphetamine (automex method); assay type: in vivo, ddY-strain male mice; settings: for Motor activity (total number of counts): 500 mg/kg i.p. + methamphetamine 3 mg/kg s.c.
Method: as §1
Test 2: Antagonistic effect against methamphetamine (automex method)
Mice were used in 5-membered groups. Each of the test compounds was intraperitoneally administered to the mice in a predetermined dose, and immediately then, the mice were subcutaneously injected with methamphetamine in a dose of 3 mg/kg. The action of the test compounds on motor activity enhanced by methamphetamine was examined in accordance with the automex method given above.

[4] = test system: sleeping induced by pentobarbital; experiment: Effect of prolonging the time of sleeping induced by pentobarbital; assay type: in vivo, ddY-strain male mice; settings: pentobarbital sodium 50 mg/kg s.c.
Method: as §1
Test 3: Effect of prolonging the time of sleeping induced by pentobarbital
The effects of the test compounds on sleeping induced by pentobarbital were examined. The disappearance of righting reflex for 5 seconds or more was used as an index of sleeping. Mice were divided into 10-membered groups. Each of the test compounds was intraperitoneally administered to the mice in the doses indicated. Immediately then, pentobarbital sodium salt was subcutaneously injected into the mice in a dose of 50 mg/kg, and the sleeping time was compared with that of a group to which pentobarbital alone was injected (control).

in vivo = settings: mouse, in vivo, ip
Method: (§2) Calcium 4-(3,5-dihydroxy-3-methylpentylamide) butyrate was intraperitoneally administered in doses of 500 mg/kg and 1,000 mg/kg respectively to eight ddY-strain male mice (body weight 20 to 25 g).

ddY-strain male mice [5] = experiment: Toxicity test, intraperitoneal (LD50); settings: 500 mg/kg and 1,000 mg/kg i.p.; result in words
Method: as §2

ddY-strain male mice [6] = experiment: Irwin's observation method (behavior, nervous, autonomic nervous and toxic symptoms); assay type: in vivo; settings: 1,000 mg/kg or below, i.p.; vs control group
Excerpt: These mice were also observed for changes in behavior, nervous symptoms, autonomic nervous symptoms, and toxic symptoms in accordance with the Irwin's observation method.

In the case of CC(O)(CCO)CC(=O)NCCCC(=O)O (stereo not drawn) [MV-GABA-Ca salt, calcium 4-(3,5-dihydroxy-3-methylpentylamide) butyrate], the “Motor activity (total number of revolutions per mouse)” value ([1]; 250 mg/kg i.p., 15 minutes) is reported as 201 revolutions per mouse, the “Motor activity (total number of revolutions per mouse)” value ([1]; 250 mg/kg i.p., 30 minutes) is reported as 406 revolutions per mouse and the “Motor activity (total number of revolutions per mouse)” value ([1]; 250 mg/kg i.p., 45 minutes) is reported as 560 revolutions per mouse. The “Motor activity (total number of revolutions per mouse)” value ([1]; 250 mg/kg i.p., 60 minutes) was 727 revolutions per mouse, the “Motor activity (total number of revolutions per mouse)” value ([1]; 250 mg/kg i.p., 75 minutes) was 865 revolutions per mouse and the “Motor activity (total number of revolutions per mouse)” value ([1]; 250 mg/kg i.p., 90 minutes) was 916 revolutions per mouse. The “Motor activity (total number of revolutions per mouse)” value ([1]; 500 mg/kg i.p., 15 minutes) was 132 revolutions per mouse, the “Motor activity (total number of revolutions per mouse)” value ([1]; 500 mg/kg i.p., 30 minutes) was 289 revolutions per mouse and the “Motor activity (total number of revolutions per mouse)” value ([1]; 500 mg/kg i.p., 45 minutes) was 448 revolutions per mouse. For the same compound, the “Motor activity (total number of revolutions per mouse)” value ([1]; 500 mg/kg i.p., 60 minutes) was 615 revolutions per mouse, the “Motor activity (total number of revolutions per mouse)” value ([1]; 500 mg/kg i.p., 75 minutes) was 826 revolutions per mouse and the “Motor activity (total number of revolutions per mouse)” value ([1]; 500 mg/kg i.p., 90 minutes) was 1034 revolutions per mouse. The “Motor activity (total number of revolutions per mouse)” value ([1]; 1000 mg/kg i.p., 15 minutes) was 76 revolutions per mouse, the “Motor activity (total number of revolutions per mouse)” value ([1]; 1000 mg/kg i.p., 30 minutes) was 165 revolutions per mouse and the “Motor activity (total number of revolutions per mouse)” value ([1]; 1000 mg/kg i.p., 45 minutes) was 265 revolutions per mouse. The “Motor activity (total number of revolutions per mouse)” value ([1]; 1000 mg/kg i.p., 60 minutes) was 428 revolutions per mouse, the “Motor activity (total number of revolutions per mouse)” value ([1]; 1000 mg/kg i.p., 75 minutes) was 639 revolutions per mouse and the “Motor activity (total number of revolutions per mouse)” value ([1]; 1000 mg/kg i.p., 90 minutes) was 837 revolutions per mouse. The “Motor activity (total number of counts)” value ([2]; 500 mg/kg i.p., 5 minutes) was 172 counts, the “Motor activity (total number of counts)” value ([2]; 500 mg/kg i.p., 10 minutes) was 241 counts and the “Motor activity (total number of counts)” value ([2]; 500 mg/kg i.p., 15 minutes) was 307 counts. For the same compound, the “Motor activity (total number of counts)” value ([2]; 500 mg/kg i.p., 20 minutes) was 405 counts, the “Motor activity (total number of counts)” value ([2]; 500 mg/kg i.p., 25 minutes) was 505 counts and the “Motor activity (total number of counts)” value ([2]; 500 mg/kg i.p., 30 minutes) was 558 counts. For the same compound, the “Motor activity (total number of counts)” value ([2]; 1000 mg/kg i.p., 5 minutes) was 91 counts, the “Motor activity (total number of counts)” value ([2]; 1000 mg/kg i.p., 10 minutes) was 128 counts and the “Motor activity (total number of counts)” value ([2]; 1000 mg/kg i.p., 15 minutes) was 156 counts. The “Motor activity (total number of counts)” value ([2]; 1000 mg/kg i.p., 20 minutes) was 177 counts, the “Motor activity (total number of counts)” value ([2]; 1000 mg/kg i.p., 25 minutes) was 189 counts and the “Motor activity (total number of counts)” value ([2]; 1000 mg/kg i.p., 30 minutes) was 203 counts. For the same compound, the “Motor activity (total number of counts)” value ([3]; 5 minutes) was 10 counts, the “Motor activity (total number of counts)” value ([3]; 10 minutes) was 11 counts and the “Motor activity (total number of counts)” value ([3]; 15 minutes) was 22 counts. The “Motor activity (total number of counts)” value ([3]; 20 minutes) was 38 counts, the “Motor activity (total number of counts)” value ([3]; 25 minutes) was 71 counts and the “Motor activity (total number of counts)” value ([3]; 30 minutes) was 126 counts. For the same compound, the “antagonistic effect against the increase of motor activity induced by methamphetamine” value ([3]; 500 mg/kg, result in words) was “markedly inhibited the motor activity of mice enhanced by methamphetamine”, the Sleeping time ([4]; 1000 mg/kg i.p.) was 62.7 ± 7.5 min and the Sleeping time ([4]; 2000 mg/kg i.p.) was 77.2 ± 5.2 min. For the same compound, the LD50 (in vivo) was > 2000 mg/kg, the death (ddY-strain male mice [5]) was “no case of death” and the “changes in behavior, nervous symptoms, autonomic nervous symptoms, and toxic symptoms” value (ddY-strain male mice [6]) was “no marked difference from the control group could be found”.

Source: patent US4703061A, “Gamma-aminobutyric acid derivatives, process for production thereof, and use thereof as medicaments” (priority 1984, dated 1987)
